These results are taken from patent US8846567B2, “Active compound combinations having insecticidal and acaricidal properties” (priority 2009, dated 2014).

Read-outs that look alike come from different tables or passages of the source.

Holding throughout (type): in vivo
The subject of one experiment is Myzus persicae. The note with it: 0.8 g/ha, single active compound. The text has this: (§1) If the actual insecticidal or acaricidal kill rate exceeds the calculated value, the kill of the combination is superadditive, i.e. a synergistic effect is present. In this case, the actually observed kill rate must exceed the value calculated using the above formula for the expected kill rate (E).
(§2) • Solvents: 78 parts by weight of acetone 1.5 parts by weight of dimethylformamide • Emulsifier: 0.5 part by weight of alkylaryl polyglycol ether
After the desired period of time, the kill in % is determined 100% means that all of the aphids have been killed; 0% means that none of the aphids have been killed. The kill rates determined are entered into Colby's formula (see above).

A further experiment deals with Phaedon cochleariae.
Excerpt: as §1, §2
After the desired period of time, the kill in % is determined 100% means that all beetle larvae have been killed; 0% means that none of the beetle larvae have been killed. The kill rates determined are entered into Colby's formula (see above).

Another experiment has as its system Spodoptera frugiperda. Put plainly: Spodoptera frugiperda test (sprayed cabbage leaves). The following applies: single active compound.
Excerpt: The expected action for a given combination of two active compounds can be calculated according to S. R. Colby, Weeds 15 (1967), 20-22, as follows:
as §1, §2
To produce a suitable preparation of active compound, 1 part by weight of active compound is mixed with the stated amount of solvent and emulsifier, and the concentrate is diluted with emulsifier-containing water to the desired concentration.
Cabbage leaves (Brassica oleracea) are treated by being sprayed with the preparation of active compound of the desired concentration and are populated with larvae of the armyworm (Spodoptera frugiperda) while the leaves are still moist.
After the desired period of time, the kill in % is determined 100% means that all caterpillars have been killed; 0% means that none of the caterpillars have been killed. The kill rates determined are entered into Colby's formula (see above).

Setting [1] is: 20 g/ha, after 6 d, single active compound.
[2] abbreviates: 100 g/ha, after 6 d, single active compound.
Where [3] appears, read: 4 g/ha, after 6 d, single active compound.
[4] abbreviates: 20 g/ha, single active compound.

On to `CCOP(=O)(NC(C)C)Oc1ccc(SC)c(C)c1` (stereo not drawn) [fenamiphos], for which, in the experiment on Myzus persicae, the “Kill in % after 6 d” value was determined as 0%.

As for `COP(=O)(NC(C)=O)SC` (stereo not drawn) [acephate], the “Kill in % after 6 d” value with Myzus persicae is listed as 0%. Besides, the “Kill In % after 6d” value with Phaedon cochleariae (setting [1]) and in the experiment with Phaedon cochleariae (setting [2]) was 0% in each case.

With `O=C1C=C(N(CCF)Cc2ccc(Cl)nc2)CO1` [compound (I-4), 4-{[(6-chloropyrid-3-yl)methyl](2-fluoroethyl)amino}furan-2(5H)-one], the “Kill in % after 1d” value in the experiment with Myzus persicae is listed as 20%. The “Kill In % after 2d” value in the experiment on Phaedon cochleariae (4 g/ha, single active compound) was 0%; in the experiment on Phaedon cochleariae (100 g/ha, single active compound) it was 50%. Also, the “Kill In % after 6d” value stood at 0% with Phaedon cochleariae (setting [3]) and 50% in the experiment with Phaedon cochleariae (setting [2]). Moreover, the “Kill in % after 6 d” value with Spodoptera frugiperda (20 g/ha) is on record as 0%.

`CS/C(C)=N/OC(=O)N(C)SN(C)C(=O)O/N=C(\C)SC` [thiodicarb]: the “Kill in % after 1d” value in the experiment on Myzus persicae is recorded as 0%. Moreover, the results for the “Kill in % after 6 d” value in the experiment with Myzus persicae, in the experiment with Spodoptera frugiperda (4 g/ha) and in the experiment with Spodoptera frugiperda (20 g/ha) were 0%, 50% and 83%, respectively. For the same molecule, the “Kill In % after 6d” value with Phaedon cochleariae (setting [1]) and with Phaedon cochleariae (setting [2]) was 0% throughout.

`O=C1C=C(N(Cc2ccc(Cl)nc2)CC(F)F)CO1` [compound (I-5), 4-{[(6-chloropyrid-3-yl)methyl](2,2-difluoroethyl)amino}furan-2(5H)-one]: the “Kill In % after 6d” value in the experiment with Phaedon cochleariae (setting [3]) is on record as 0%; in the experiment on Phaedon cochleariae (setting [2]), 67%. In addition, the “Kill In % after 2d” value with Phaedon cochleariae (setting [4]) was determined as 17%. Besides, the “Kill in % after 6 d” value with Spodoptera frugiperda (4 g/ha) is recorded as 0%.

Regarding `CN(Cc1cnc(Cl)c(F)c1)C1=CC(=O)OC1` [compound (I-6), 4-{[(6-chloro-5-fluoropyrid-3-yl)methyl](methyl)amino}furan-2(5H)-one], the entries for the “Kill in % after 6 d” value in the experiment with Myzus persicae, in the experiment on Spodoptera frugiperda (4 g/ha) and with Spodoptera frugiperda (20 g/ha) were 80%, 0% and 0%, respectively. In addition, the “Kill In % after 2d” value in the experiment with Phaedon cochleariae (setting [4]) was found to be 0%. The “Kill In % after 6d” value in the experiment on Phaedon cochleariae (setting [1]) was determined as 17%.

With `CCCSP(=O)(OCC)SCCC` [ethoprofos, ethoprophos], the “Kill In % after 6d” value with Phaedon cochleariae (in vivo) is 0%.

Regarding `CCOP(=S)(OCC)Oc1nc(Cl)c(Cl)cc1Cl` [chlorpyriphos, chlorpyrifos], the “Kill In % after 2d” value with Phaedon cochleariae (4 g/ha, single active compound) was 0%; in the experiment with Phaedon cochleariae (setting [4]), 50%. Besides, the “Kill in % after 6 d” value in the experiment on Spodoptera frugiperda (4 g/ha) is 67%.

For the molecule methiocarb, the “Kill in % after 6 d” value with Myzus persicae is reported as 0%. Moreover, the “Kill In % after 2d” value with Phaedon cochleariae (4 g/ha, single active compound) came out at 17%.

`COP(N)(=O)SC` (stereo not drawn) [methamidophos]: the “Kill in % after 6 d” value amounted to 0% in the experiment on Myzus persicae and 67% in the experiment on Spodoptera frugiperda (20 g/ha).
